Measured values reported in ChEMBL document CHEMBL4428125, “8-Substituted 1,3-dimethyltetrahydropyrazino[2,1-f]purinediones: Water-soluble adenosine receptor antagonists and monoamine oxidase B inhibitors” (Bioorg Med Chem, 2016).
≈ marks a conversion by molar mass, not a printed value.

Key:
[1] = target: T1, Adenosine receptor A2b (Homo sapiens, UniProt P29275); assay: Displacement of [3H]PSB-603 from human A2B receptor expressed in CHO cell membrane; type: cell membranes
T1 sequence (P29275 whole entry): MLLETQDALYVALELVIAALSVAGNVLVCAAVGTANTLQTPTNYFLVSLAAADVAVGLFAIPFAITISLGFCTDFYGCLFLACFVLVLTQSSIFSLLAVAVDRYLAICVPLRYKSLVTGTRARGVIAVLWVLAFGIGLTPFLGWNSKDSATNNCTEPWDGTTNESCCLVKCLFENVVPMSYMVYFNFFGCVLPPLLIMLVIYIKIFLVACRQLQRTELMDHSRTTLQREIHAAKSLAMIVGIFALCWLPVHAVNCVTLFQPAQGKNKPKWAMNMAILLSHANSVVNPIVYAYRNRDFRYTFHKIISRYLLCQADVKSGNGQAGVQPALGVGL

[2] = target: T2, Adenosine receptor A2b (Homo sapiens) (UniProt P29275); assay: Displacement of [3H]PSB-603 from human A2B receptor expressed in CHO cell membrane at 1 uM relative to control; type: cell membranes
T2 sequence (whole entry): T1 sequence (P29275 whole entry)

[3] = Thermodynamic solubility of the compound at pH 7.4; type: physicochemical; details: buffer, read-out: Therm_solubility
[4] = target: T3, Adenosine receptor A3 (Homo sapiens, UniProt P0DMS8); assay: Displacement of [3H]PSB-11 from human A3 receptor expressed in CHO cell membrane by liquid scintillation counting method relative to control; type: cell membranes
T3 sequence (P0DMS8 whole entry): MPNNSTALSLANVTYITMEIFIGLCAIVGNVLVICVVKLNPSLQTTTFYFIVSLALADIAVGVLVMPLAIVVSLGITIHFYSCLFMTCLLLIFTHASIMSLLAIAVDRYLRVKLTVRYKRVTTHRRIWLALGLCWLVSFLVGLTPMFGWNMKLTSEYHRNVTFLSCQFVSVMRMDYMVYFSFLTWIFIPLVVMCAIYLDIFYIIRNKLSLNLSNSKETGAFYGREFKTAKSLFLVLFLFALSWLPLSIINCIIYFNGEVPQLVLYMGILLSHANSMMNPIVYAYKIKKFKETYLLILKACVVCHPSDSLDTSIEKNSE

[5] = target: T4, Amine oxidase [flavin-containing] B (Homo sapiens, UniProt P27338); assay: Inhibition of recombinant human MAO-B expressed in baculovirus infected BTI insect cells preincubated for 30 mins followed by addition of p-tyramine as substrate measured over 45 mins by Amplex Red MAO assay
T4 sequence (P27338 whole entry): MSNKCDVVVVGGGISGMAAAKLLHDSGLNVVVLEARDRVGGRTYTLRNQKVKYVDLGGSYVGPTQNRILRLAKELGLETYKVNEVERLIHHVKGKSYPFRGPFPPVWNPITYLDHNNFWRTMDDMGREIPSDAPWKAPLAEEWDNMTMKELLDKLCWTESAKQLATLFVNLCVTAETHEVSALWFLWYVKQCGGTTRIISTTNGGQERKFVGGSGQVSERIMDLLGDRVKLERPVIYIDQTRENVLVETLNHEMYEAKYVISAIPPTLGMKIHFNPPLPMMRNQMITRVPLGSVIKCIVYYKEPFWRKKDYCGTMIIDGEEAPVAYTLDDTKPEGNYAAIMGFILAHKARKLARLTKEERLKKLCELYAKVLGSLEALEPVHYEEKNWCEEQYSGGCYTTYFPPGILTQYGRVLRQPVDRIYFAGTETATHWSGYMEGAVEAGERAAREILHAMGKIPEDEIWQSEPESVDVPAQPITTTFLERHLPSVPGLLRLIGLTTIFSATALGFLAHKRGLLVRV

[6] = target: T5, Adenosine receptor A1 (Rattus norvegicus, UniProt P25099); assay: Displacement of [3H]CCPA from A1 receptor in rat brain cortex membranes by liquid scintillation counting method; type: cell membranes
T5 sequence (P25099 whole entry): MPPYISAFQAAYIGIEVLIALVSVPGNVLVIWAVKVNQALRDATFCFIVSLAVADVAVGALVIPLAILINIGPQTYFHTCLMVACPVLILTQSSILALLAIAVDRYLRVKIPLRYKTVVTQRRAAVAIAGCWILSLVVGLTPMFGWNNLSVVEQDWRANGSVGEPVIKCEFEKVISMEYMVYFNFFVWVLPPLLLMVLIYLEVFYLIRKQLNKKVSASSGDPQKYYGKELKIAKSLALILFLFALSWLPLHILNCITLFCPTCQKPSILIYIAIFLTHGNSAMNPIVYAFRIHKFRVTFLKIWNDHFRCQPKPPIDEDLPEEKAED

[7] = target: T6, Adenosine receptor A3 (Homo sapiens) (UniProt P0DMS8); assay: Displacement of [3H]PSB-11 from human A3 receptor expressed in CHO cell membrane at 10 uM by liquid scintillation counting method relative to control relative to control; type: cell membranes
T6 sequence (whole entry): T3 sequence (P0DMS8 whole entry)

[8] = target: Adenosine receptor A2a (Rattus norvegicus, UniProt P30543); assay: Displacement of [3H]MSX from A2A receptor in rat brain striatum membranes measured after 30 mins by liquid scintillation counting method; type: cell membranes
[9] = target: T7, Adenosine receptor A1 (Rattus norvegicus) (UniProt P25099); assay: Displacement of [3H]CCPA from A1 receptor in rat brain cortex membranes at 1.5 uM by liquid scintillation counting method; type: cell membranes
T7 sequence (whole entry): T5 sequence (P25099 whole entry)

[10] = target: T4, Amine oxidase [flavin-containing] B; assay: Inhibition of recombinant human MAO-B expressed in baculovirus infected BTI insect cells at 10 uM preincubated for 30 mins followed by addition of p-tyramine as substrate measured over 45 mins by Amplex Red MAO assay relative to control; details: 0.75 h
[11] = target: Adenosine receptor A2a (Rattus norvegicus) (UniProt P30543); assay: Displacement of [3H]MSX from A2A receptor in rat brain striatum membranes at 1 uM measured after 30 mins by liquid scintillation counting method relative to control; type: cell membranes
[12] = target: T8, Amine oxidase [flavin-containing] A (Homo sapiens, UniProt P21397); assay: Inhibition of recombinant human MAO-A expressed in baculovirus infected BTI insect cells at 10 uM preincubated for 30 mins followed by addition of p-tyramine as substrate measured over 45 mins by Amplex Red MAO assay relative to control; details: 0.75 h
T8 sequence (P21397 whole entry): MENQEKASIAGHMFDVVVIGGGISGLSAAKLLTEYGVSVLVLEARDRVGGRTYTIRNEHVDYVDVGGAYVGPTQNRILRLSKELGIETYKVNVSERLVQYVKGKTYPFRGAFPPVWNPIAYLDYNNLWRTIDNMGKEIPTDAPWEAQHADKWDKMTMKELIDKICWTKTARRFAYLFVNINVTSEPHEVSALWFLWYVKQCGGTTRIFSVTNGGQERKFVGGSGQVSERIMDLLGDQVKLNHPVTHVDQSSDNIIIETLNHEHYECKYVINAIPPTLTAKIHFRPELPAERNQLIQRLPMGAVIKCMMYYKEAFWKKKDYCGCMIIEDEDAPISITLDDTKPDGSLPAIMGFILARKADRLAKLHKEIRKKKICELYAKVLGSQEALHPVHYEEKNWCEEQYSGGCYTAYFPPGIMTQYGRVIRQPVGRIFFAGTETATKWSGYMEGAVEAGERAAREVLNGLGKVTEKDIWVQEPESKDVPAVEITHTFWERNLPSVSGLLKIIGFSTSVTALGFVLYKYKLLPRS

[13] = target: T8, Amine oxidase [flavin-containing] A; assay: Inhibition of recombinant human MAO-A expressed in baculovirus infected BTI insect cells preincubated for 30 mins followed by addition of p-tyramine as substrate measured over 45 mins by Amplex Red MAO assay

Sequence of Adenosine receptor A2a (P30543 whole entry): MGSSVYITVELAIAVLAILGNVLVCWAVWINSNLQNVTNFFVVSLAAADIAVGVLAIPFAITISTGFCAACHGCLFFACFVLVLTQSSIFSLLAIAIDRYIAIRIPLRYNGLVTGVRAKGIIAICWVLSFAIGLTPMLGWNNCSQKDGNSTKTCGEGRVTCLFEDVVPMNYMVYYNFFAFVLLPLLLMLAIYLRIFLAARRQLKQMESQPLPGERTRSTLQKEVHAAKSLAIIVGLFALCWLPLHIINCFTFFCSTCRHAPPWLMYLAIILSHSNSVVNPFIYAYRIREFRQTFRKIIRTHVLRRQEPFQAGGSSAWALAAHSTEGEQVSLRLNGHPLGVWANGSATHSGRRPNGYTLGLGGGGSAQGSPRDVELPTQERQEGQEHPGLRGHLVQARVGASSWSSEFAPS
Sequence of Adenosine receptor A2a (Rattus norvegicus) (P30543 whole entry): as above

SMILES	Ki [1] [nM]	Activity [2] [%]	solubility thermodynamic [3] [µg/mL]	Ki [4] [nM]	IC50 [5] [nM]	Ki [6] [nM]	Activity [7] [%]	Ki [8] [nM]	Activity [9] [%]	inhibition at 10 µM [10] [%]	Activity [11] [%]	inhibition at 10 µM [12] [%]	IC50 [13] [nM]
CC(CN1CCn2c(nc3c2c(=O)n(C)c(=O)n3C)C1)c1ccccc1 (stereo unspecified)	> 1000	11	–	> 10000	> 10000	> 1500	31	4520	27	11	–	23	> 10000
COc1ccc(CCN2CCn3c(nc4c3c(=O)n(C)c(=O)n4C)C2)cc1OC	> 1000	6	–	> 10000	> 10000	> 1500	43	> 1000	-2	13	16	–	–
COc1cccc(C#CCN2CCn3c(nc4c3c(=O)n(C)c(=O)n4C)C2)c1	> 1000	7	–	> 10000	> 10000	> 1500	9	> 1000	17	13	32	–	–
Cn1c(=O)c2c(nc3n2CCN(Cc2cn(-c4ccc(Cl)cc4)nn2)C3)n(C)c1=O	> 1000	27	–	> 10000	> 10000	> 1500	11	> 1000	36	12	26	–	–
Cn1c(=O)c2c(nc3n2CCN(CC#Cc2cccc(Cl)c2)C3)n(C)c1=O	> 1000	7	–	> 10000	> 10000	> 1500	20	> 1000	17	5	42	19	> 10000
COc1ccccc1CCN1CCn2c(nc3c2c(=O)n(C)c(=O)n3C)C1	> 1000	7	–	> 10000	> 10000	> 1500	39	> 1000	9	4	15	–	–
COc1cccc(CCN2CCn3c(nc4c3c(=O)n(C)c(=O)n4C)C2)c1	> 1000	5	–	> 10000	> 10000	> 1500	23	> 1000	17	10	31	–	–
Cc1cc(CN2CCn3c(nc4c3c(=O)n(C)c(=O)n4C)C2)n(C)n1	> 1000	8	700 (≈ 2040 µM)	> 10000	> 10000	> 1500	5	> 1000	15	-17	14	–	–
Cn1c(=O)c2c(nc3n2CCN(CC#Cc2ccc(Cl)c(Cl)c2)C3)n(C)c1=O	> 1000	15	–	> 10000	> 10000	> 1500	35	> 1000	29	31	31	–	–

The remaining lines, values ahead:

Ki [1] [nM]	Activity [2] [%]	solubility thermodynamic [3] [µg/mL]	Ki [4] [nM]	IC50 [5] [nM]	Ki [6] [nM]	Activity [7] [%]	Ki [8] [nM]	Activity [9] [%]	inhibition at 10 µM [10] [%]	Activity [11] [%]	inhibition at 10 µM [12] [%]	IC50 [13] [nM]	SMILES
> 1000	4	1 (≈ 2.67 µM)	> 10000	> 10000	> 1500	37	4960	22	36	–	–	–	Cn1c(=O)c2c(nc3n2CCN(CCc2ccc(Cl)cc2)C3)n(C)c1=O
> 1000	30	1 (≈ 2.04 µM)	> 10000	10000	> 1500	40	> 1000	25	67	19	–	–	Cc1sc(-c2ccc(C(F)(F)F)cc2)nc1CN1CCn2c(nc3c2c(=O)n(C)c(=O)n3C)C1
> 1000	9	–	> 10000	> 10000	> 1500	8	> 1000	11	7	11	2	> 10000	COc1cccc2c1CC[C@H](N1CCn3c(nc4c3c(=O)n(C)c(=O)n4C)C1)C2
> 1000	8	1 (≈ 2.81 µM)	> 10000	> 10000	> 1500	35	6040	11	15	–	–	–	Cn1c(=O)c2c(nc3n2CCN(CCc2ccc(O)cc2)C3)n(C)c1=O
> 1000	8	–	> 10000	> 10000	> 1500	43	> 1000	5	1	30	–	–	COc1cccc(CCN2CCn3c(nc4c3c(=O)n(C)c(=O)n4C)C2)c1OC
> 1000	12	–	> 10000	–	> 1500	11	> 1000	10	60	19	–	–	Cn1c(=O)c2c(nc3n2CCN(CCc2ccc(F)c(F)c2)C3)n(C)c1=O
> 1000	4	–	> 10000	> 10000	> 1500	11	> 1000	13	2	13	–	–	Cn1c(=O)c2c(nc3n2CCN(CCCn2ccnc2)C3)n(C)c1=O
